The text below walks through data of article PMC9598407, “Identification of Staphylococcus aureus Penicillin Binding Protein 4 (PBP4) Inhibitors” (Antibiotics, 2022).

Assay [1] has as its system S. aureus strain USA300. The assay can be described thus: microbe, parasite or virus in culture. The format is cell-based. Conditions: Staphylococcus aureus, USA300, read-out: Ceftobiprole resistance (MIC) without compound. As for the experimental part:
(§1) Fractional inhibitory testing was performed in checkerboard format to determine whether putative PBP4 inhibitors potentiated the antimicrobial effects of β-lactams toward S. aureus strains USA300 and CRB, as previously described. To do so, in triplicate 10^5 CFU of each strain (10 µL) was added to individual wells of a microtiter plate containing 90 µL MH media. […] Plates were incubated at 37 °C for 16–20 h and the lowest concentration of each test agent that inhibited bacterial growth alone or in combination was determined by the naked eye. The fractional inhibitory concentration (FIC) index was calculated using the formula: FIC of A (MIC of drug A in combination/MIC of drug A alone) + FIC B ([…]/MIC of drug B alone). A synergistic interaction was defined as a FICI value of less than 0.5, an additive interaction was defined as a FICI value between 0.5 and 1.0, an indifferent interaction was defined as a FICI value between 1.0 and 4.0, and an antagonistic interaction was defined as a FICI value of more than 4.0 [46].

The test system of assay [2] is S. aureus USA300∆pbp4 pPBP4. Briefly: microbe, parasite or virus in culture. The format is cell-based. Conditions: Staphylococcus aureus, USA300, read-out: Minimum inhibitory concentration.
The subject of assay [3] is S. aureus CRB. The assay can be described thus: MIC testing, strain CRB (PBP4 overproducer). The format is cell-based, Staphylococcus aureus. Particulars: for MIC: Staphylococcus aureus, read-out: Minimum inhibitory concentration, strain CRB. The protocol: (§2) To further evaluate their potential PBP4 inhibitor activity, prioritized compounds were tested for their ability to reverse PBP4 mediated antibiotic resistance in another S. aureus background using three isogenic strains that became available during our study (generous gift from Dr. S. Chatterjee; University of Maryland). These strains included: (1) COLnex, which is a methicillin susceptible strain, (2) CRB, a methicillin/ceftobiprole-resistant strain of COLnex that overproduces PBP4, and (3) CRB∆pbp4, a methicillin susceptible strain of CRB lacking the pbp4 gene.
(§3) S. aureus strain USA300 is a predominant cause of U.S. community-associated MRSA infections, whereas strain COL is a commonly studied hospital-associated MRSA strain. The S. aureus USA300 pbp4-null strain (USA300Δpbp4) and PBP4 complementation strain (USA300∆pbp4 pPBP4) have been previously described. Strain COLn is a laboratory derived tetracycline susceptible derivative of COL, whereas COLnex is a methicillin susceptible COLn derivative that has been cured of SCCmec thereby removing the mecA, which encodes PBP2a, and has been previously described. Strain CRB is a well-studied MRSA COLnex derivative that contains two amino acid substitutions (E183A and F241R) near the PBP4 active site and a 36-bp duplication 290-bp upstream of the pbp4 open reading frame leading to 20–40-fold overexpression of the gene. All strains were grown in Mueller Hinton (MH) broth at 37 °C, as indicated. Penicillin, streptomycin, ciprofloxacin, mupirocin, meropenem, and mitomycin C were purchased from Fisher Scientific (Waltham, MA, USA), whereas ceftobiprole was obtained from MedChemExpress LLC (Monmouth Junction, NJ, USA). The 30,000-member […]-EXP small molecule chemical library (Blocks 3–5) used in these studies was purchased from ChemBridge Corporation (San Diego, CA, USA).

Assay [4] deals with S. aureus USA300. Briefly: Minimum inhibitory concentration (MIC) testing, strain USA300. The format is cell-based, Staphylococcus aureus. Conditions: for MIC: Staphylococcus aureus, USA300, read-out: Minimum inhibitory concentration. As for the experimental part:
(§4) The approach used was to initially search for compounds that reverse the antibiotic resistance profile of wild type cells to that of a pbp4 mutant. To define screening conditions three strains were employed, a wild type USA300 MRSA strain, an isogenic pbp4 deletion strain, and a complemented strain harboring a plasmid wildtype pbp4 copy. The antibiotic susceptibility profile of each strain was measured to determine the magnitude with which PBP4 affects resistance to various antibiotics (Table 1). […]. We anticipated that the greater dynamic range of the latter could provide a means to reliably screen for agents that inhibit PBP4 function. […].
as §3

The test system of assay [5] is S. aureus USA300∆pbp4. The assay can be described thus: MIC testing, strain USA300∆pbp4. The format is cell-based, Staphylococcus aureus. Particulars: Staphylococcus aureus, USA300, read-out: Minimum inhibitory concentration. As for the experimental part:
as §4, §3

Assay [6] has as its system S. aureus COLnex. Briefly: MIC testing, strain COLnex. The format is cell-based. Particulars: Staphylococcus aureus, read-out: Minimum inhibitory concentration. As for the experimental part: as §2, §3
The test system of assay [7] is S. aureus strain CRB. Briefly: Fractional inhibitory concentration checkerboard, ceftobiprole + putative PBP4 inhibitor, strain CRB. The format is cell-based, Staphylococcus aureus. Conditions: Staphylococcus aureus, read-out: CRB Alone BPR (ceftobiprole MIC alone). As for the experimental part: as §1
Assay [8] concerns S. aureus CRB∆pbp4. The assay can be described thus: MIC testing, strain CRB∆pbp4. Conditions: Staphylococcus aureus, read-out: Minimum inhibitory concentration. The format is cell-based. The protocol: as §2, §3
Assay [9] deals with S. aureus strain CRB∆pbp4. Briefly: Fractional inhibitory concentration checkerboard, ceftobiprole + putative PBP4 inhibitor, strain CRB∆pbp4. Conditions: Staphylococcus aureus, read-out: CRB∆pbp4 Alone BPR (ceftobiprole MIC alone). The format is cell-based, Staphylococcus aureus.

SMILES strings stand for the structures. Values after ≈ are worked out from the molar mass of the structure shown.

Regarding `Nc1nc(/C(=N/O)C(=O)N[C@@H]2C(=O)N3C(C(=O)O)=C(/C=C4\CCN([C@@H]5CCNC5)C4=O)CS[C@H]23)ns1` [BPR, ceftobiprole], the MIC in [1] is 1 µg/mL; in assay [2], 0.5 µg/mL (≈ 0.935 µM); in [3], 128 µg/mL (≈ 239 µM); in assay [4] it was 0.5 µg/mL (≈ 0.935 µM); in [5], 0.25 µg/mL (≈ 0.468 µM); in assay [6], 0.25 µg/mL (≈ 0.468 µM). Moreover, the MIC in assay [7] is 128 µg/mL; in assay [8] it was 0.25 µg/mL (≈ 0.468 µM); in assay [9], 0.25 µg/mL. In assay [3] (PBP4-overexpressor CRB versus CRB∆pbp4), the “Fold difference in ceftobiprole resistance” value was determined as 512 fold.

Consider `C/C(=C\C(=O)OCCCCCCCCC(=O)O)C[C@@H]1OC[C@H](C[C@@H]2O[C@H]2[C@@H](C)[C@H](C)O)[C@@H](O)[C@H]1O` [MUP, mupirocin], for which the MIC in assay [2] is 0.125 µg/mL (≈ 0.25 µM); in assay [3] it was 0.03 µg/mL (≈ 0.0599 µM); in [4], 0.125 µg/mL (≈ 0.25 µM); in assay [5], 0.125 µg/mL (≈ 0.25 µM); in assay [6] it was 0.03 µg/mL (≈ 0.0599 µM); in assay [8], 0.03 µg/mL (≈ 0.0599 µM).

On to `CCOc1ccc2ccccc2c1C(=O)N[C@@H]1C(=O)N2[C@@H]1SC(C)(C)[C@@H]2C(=O)O` [NAF, nafcillin], for which the MIC was 8 µg/mL (≈ 19.3 µM) in [2]; more than 128 µg/mL in assay [3]; 8 µg/mL (≈ 19.3 µM) in assay [4]; 4 µg/mL (≈ 9.65 µM) in assay [5]; 0.25 µg/mL (≈ 0.603 µM) in assay [6]; 0.25 µg/mL (≈ 0.603 µM) in assay [8]. Also, the “Fold increase in resistance provided by PBP4” value in assay [4] (USA300 versus USA300∆pbp4 MIC) is on record as 2 fold. This compound gave a Minimum inhibitory concentration in [4] (strain USA300) of 8 µg/mL (≈ 19.3 µM).

As to `NC[C@H]1O[C@H](O[C@H]2[C@H](O)[C@@H](O[C@H]3O[C@H](CO)[C@@H](O)[C@H](N)[C@H]3O)[C@H](N)C[C@@H]2N)[C@H](N)C[C@@H]1O` [TOB, tobramycin], the MIC in [2] came out at 1 µg/mL (≈ 2.14 µM); in assay [3], 0.06 µg/mL (≈ 0.128 µM); in [4], 1 µg/mL (≈ 2.14 µM); in [5] it was 1 µg/mL (≈ 2.14 µM); in [6], 0.06 µg/mL (≈ 0.128 µM); in assay [8], 0.06 µg/mL (≈ 0.128 µM).
